Measurements from the supplement of paper PMC11451515.

Tested on: NOMO1
Assay: cell viability relative to DMSO control; higher = less cytotoxic
Details: 48 h
How it was run: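 Viability values are per-plate percentages of DMSO wells, with background from cell-free wells. Library compounds in DMSO were pin-dosed, in an 11-point threefold series from 47 μM to 0.79 nM, onto NOMO1 or SEM (500 cells/well) or P12-Ichikawa (1000 cells/well) leukemia cells in 1536-well plates (5 μl). Those cells had been adapted for at least four passages in each medium, and CellTiter-Glo One luminescence was read after 48 h at 37°C.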

[1] = HPLM + 10% dialyzed FBS, 0.000781 µM
[2] = HPLM + 10% dialyzed FBS, 0.00234 µM
[3] = HPLM + 10% dialyzed FBS, 0.00702 µM
[4] = HPLM + 10% dialyzed FBS, 0.0211 µM
[5] = HPLM + 10% dialyzed FBS, 0.0632 µM
[6] = HPLM + 10% dialyzed FBS, 0.19 µM
[7] = HPLM + 10% dialyzed FBS, 0.569 µM
[8] = HPLM + 10% dialyzed FBS, 1.71 µM
[9] = HPLM + 10% dialyzed FBS, 5.12 µM
[10] = HPLM + 10% dialyzed FBS, 15.4 µM
[11] = HPLM + 10% dialyzed FBS, 46.1 µM
[12] = RPMI 5 mM glucose + 10% FBS, 0.000781 µM
[13] = RPMI 5 mM glucose + 10% FBS, 0.00234 µM
[14] = RPMI 5 mM glucose + 10% FBS, 0.00702 µM
[15] = RPMI 5 mM glucose + 10% FBS, 0.0211 µM
[16] = RPMI 5 mM glucose + 10% FBS, 0.0632 µM
[17] = RPMI 5 mM glucose + 10% FBS, 0.19 µM
[18] = RPMI 5 mM glucose + 10% FBS, 0.569 µM
[19] = RPMI 5 mM glucose + 10% FBS, 1.71 µM
[20] = RPMI 5 mM glucose + 10% FBS, 5.12 µM
[21] = RPMI 5 mM glucose + 10% FBS, 15.4 µM
[22] = RPMI 5 mM glucose + 10% FBS, 46.1 µM
[23] = RPMI 5 mM glucose + 10% dialyzed FBS, 0.000781 µM
[24] = RPMI 5 mM glucose + 10% dialyzed FBS, 0.00234 µM
[25] = RPMI 5 mM glucose + 10% dialyzed FBS, 0.00702 µM
[26] = RPMI 5 mM glucose + 10% dialyzed FBS, 0.0211 µM
[27] = RPMI 5 mM glucose + 10% dialyzed FBS, 0.0632 µM
[28] = RPMI 5 mM glucose + 10% dialyzed FBS, 0.19 µM
[29] = RPMI 5 mM glucose + 10% dialyzed FBS, 0.569 µM
[30] = RPMI 5 mM glucose + 10% dialyzed FBS, 1.71 µM
[31] = RPMI 5 mM glucose + 10% dialyzed FBS, 5.12 µM
[32] = RPMI 5 mM glucose + 10% dialyzed FBS, 15.4 µM
[33] = RPMI 5 mM glucose + 10% dialyzed FBS, 46.1 µM

SMILES | cell viability [1] [%] | cell viability [2] [%] | cell viability [3] [%] | cell viability [4] [%] | cell viability [5] [%] | cell viability [6] [%] | cell viability [7] [%] | cell viability [8] [%] | cell viability [9] [%] | cell viability [10] [%] | cell viability [11] [%] | cell viability [12] [%] | cell viability [13] [%] | cell viability [14] [%] | cell viability [15] [%] | cell viability [16] [%] | cell viability [17] [%] | cell viability [18] [%] | cell viability [19] [%] | cell viability [20] [%] | cell viability [21] [%] | cell viability [22] [%] | cell viability [23] [%] | cell viability [24] [%] | cell viability [25] [%] | cell viability [26] [%] | cell viability [27] [%] | cell viability [28] [%] | cell viability [29] [%] | cell viability [30] [%] | cell viability [31] [%] | cell viability [32] [%] | cell viability [33] [%]
CC1=C(C=CC=C1)N2\C(=N/C3=C(C(=CC=C3)C)C2=O)C[N]4N=CC5=C4N=CN=C5N | 114 | 116 | 147 | 133 | 148 | 147 | 49.6 | 44.3 | 40 | 38.5 | 35.2 | 122 | 126 | 121 | 143 | 125 | 129 | 33.4 | 26 | 26.2 | 22.9 | 22.7 | – | – | – | – | – | – | – | – | – | – | –
CC(C)(C)C(=O)OCOP(=O)(COCCn1cnc2c(N)ncnc21)OCOC(=O)C(C)(C)C | 86.9 | 99.5 | 93.6 | 108 | 88.3 | 62.2 | 68.2 | 33.9 | 32.2 | 18.9 | 2.01 | 109 | 96 | 98.2 | 98.6 | 70.3 | 61.4 | 44.4 | 19.9 | 15.8 | 9.1 | 2.21 | 101 | 93.6 | 91.9 | 93.7 | 78.5 | 66.9 | 47.7 | 28.6 | 14.9 | 14.2 | 2.41
[NH2][Pt]([NH2])([Cl])[Cl] | 94.8 | 110 | 91.2 | 103 | 121 | 110 | 93.8 | 99.4 | 95.5 | 90.5 | 94 | 83.7 | 92.2 | 79.8 | 99.6 | 89.7 | 103 | 85.9 | 88.1 | 84.6 | 82.4 | 81.3 | 90 | 90.6 | 88 | 85.8 | 97.4 | 94.7 | 96.8 | 96 | 94.9 | 89.3 | 101
O=C1Nc2ccc(Cl)cc2[C@@](C#CC2CC2)(C(F)(F)F)O1 | 74.7 | 97 | 76.4 | 85.9 | 97 | 84.8 | 80.2 | 81.4 | 59 | 57.2 | 79.8 | 73.7 | 78.2 | 77.1 | 80.7 | 88.7 | 80.8 | 79.3 | 80.4 | 81.3 | 77.3 | 12.5 | 70.1 | 90.1 | 92.3 | 101 | 97.9 | 95.9 | 95.6 | 93.2 | 86.7 | 95.7 | 78.3
CC(C)C[C@H](NC(=O)[C@@H](NC(=O)c1cccc(-c2ccccc2)n1)[C@@H](C)O)B(O)O | – | – | – | – | – | – | – | – | – | – | – | 94.7 | 111 | 115 | 128 | 66.2 | 23.5 | 8.87 | 10.1 | 7.67 | 5.17 | 3.38 | 104 | 125 | 126 | 131 | 86.9 | 39.9 | 10.7 | 8.94 | 8.79 | 5.46 | 3.79
CC(=O)N1CCN(c2ccc(OC[C@H]3CO[C@](Cn4ccnc4)(c4ccc(Cl)cc4Cl)O3)cc2)CC1 | 126 | 120 | 123 | 118 | 117 | 102 | 129 | 103 | 98.8 | 96.3 | 80.4 | 113 | 111 | 121 | 114 | 114 | 107 | 119 | 106 | 97.9 | 98.2 | 93.6 | 111 | 100 | 120 | 127 | 127 | 113 | 103 | 113 | 126 | 110 | 89.3
NC1=NC=C(C=C1)C2=CC=C3N=CC\4=C(N(C(=O)\C=C4)C5=CC(=CC=C5)C(F)(F)F)C3=C2 | 80.5 | 76.8 | 62.6 | 57.6 | 41.2 | 27.1 | 24.1 | 24.3 | 21.4 | 18.6 | 16.5 | 86.1 | 83.9 | 75.3 | 74.4 | 55 | 29.7 | 30.3 | 23.2 | 15.3 | 11.7 | 13.2 | 68.9 | 72.8 | 74.1 | 61.4 | 46 | 28.5 | 29.5 | 22.9 | 17.2 | 13.5 | 17.1
C[C@@H](O)[C@@H]1[C@H]2[C@@H](C)\C(=C(/N2C1=O)C(=O)OCOC(=O)C(C)(C)C)SC3CN(C3)/C4=N/CCS4 | 93.2 | 93.2 | 103 | 111 | 110 | 113 | 105 | 102 | 68.2 | 60.8 | 38.4 | 92.3 | 102 | 113 | 111 | 101 | 112 | 101 | 110 | 109 | 116 | 104 | 87.8 | 106 | 103 | 119 | 111 | 126 | 115 | 120 | 100 | 84.5 | 77.7
O=C(O)c1ccc(-n2nc(-c3ccccc3O)nc2-c2ccccc2O)cc1 | 90 | 97.1 | 111 | 90.6 | 108 | 113 | 95.4 | 86.4 | 91.2 | 74.7 | 44.4 | 94.9 | 92.5 | 93.5 | 94 | 104 | 96.3 | 93.5 | 103 | 96 | 90.5 | 29.8 | 94.3 | 103 | 96.4 | 89.2 | 87 | 88.4 | 89.5 | 94.3 | 79.5 | 68 | 24.2
OCc1ccc(-c2nn(Cc3ccccc3)c3ccccc23)o1 | 120 | 101 | 120 | 127 | 108 | 101 | 111 | 64.6 | 91.6 | 38.5 | 9 | 104 | 111 | 104 | 102 | 95.4 | 96.4 | 96.8 | 93.4 | 98.6 | 38 | 8.67 | 110 | 105 | 105 | 113 | 107 | 105 | 107 | 89.6 | 81.6 | 42.4 | 7.56
Cn1cc(-c2ccc3nnc(C(F)(F)c4ccc5ncccc5c4)n3n2)cn1 | 115 | 99.1 | 97.5 | 107 | 101 | 106 | 105 | 101 | 95.4 | 103 | 69.3 | 110 | 106 | 135 | 109 | 107 | 106 | 99.6 | 94.9 | 106 | 96.6 | 87.2 | 87.3 | 98.4 | 111 | 97.8 | 99.2 | 98.6 | 119 | 108 | 99.5 | 96.2 | 81.3
CC(=O)CC(C1=CC=CC=C1)C/2=C(O)/C3=CC=CC=C3OC2=O (centres undefined) | 96.8 | 126 | 111 | 129 | 124 | 132 | 132 | 128 | 147 | 143 | 155 | – | – | – | – | – | – | – | – | – | – | – | 109 | 116 | 128 | 123 | 120 | 126 | 127 | 121 | 124 | 127 | 129
CCC(=O)OCC(=O)[C@@]1(OC(=O)CC)[C@@H](C)C[C@H]2[C@@H]3CCC4=CC(=O)C=C[C@]4(C)[C@@]3(F)[C@@H](O)C[C@@]21C | 117 | 130 | 111 | 109 | 115 | 97.4 | 106 | 62.7 | 43.5 | 28.3 | 25.4 | 99.3 | 98.8 | 107 | 112 | 112 | 105 | 116 | 95 | 84.5 | 16.9 | 18.8 | 110 | 112 | 117 | 115 | 118 | 136 | 108 | 79.1 | 84.3 | 26.4 | 23.9
COc1cc(O)c2c(c1)C1OC1C[C@H](O)[C@H](O)C(=O)/C=C\C[C@H](C)OC2=O (some centres undefined) | 92.7 | 118 | 104 | 111 | 126 | 120 | 122 | 125 | 108 | 31.3 | 12.5 | 109 | 99.9 | 99 | 120 | 105 | 96.7 | 121 | 103 | 97.8 | 50.4 | 13.7 | 93.5 | 98 | 105 | 109 | 110 | 114 | 113 | 100 | 94.7 | 50.7 | 17.5
